The IC50 is the concentration that gives 50% inhibition.

The source of these data is paper PMC12472749, “Balsalazide-Derived Heterotriaryls as Sirtuin 5 Inhibitors: A Case Study of a Reversible Covalent Inhibition Strategy” (Molecules, 2025).

“And” between values parts separate entries of the source, which are not always exact repeats. Identical values can stand only once. Like-named read-outs stand apart in the source and are kept apart here.

Assay [1] has as its target T1, hSirt5 (Homo sapiens, UniProt Q9NXA8).
T1 construct: comprised amino acids 37–310 (C-terminal region); His-tag (N); purchased Reaction Biology Corporation (Malvern, PA, USA); host or cells: Escherichia coli
T1 sequence (Q9NXA8 37-310): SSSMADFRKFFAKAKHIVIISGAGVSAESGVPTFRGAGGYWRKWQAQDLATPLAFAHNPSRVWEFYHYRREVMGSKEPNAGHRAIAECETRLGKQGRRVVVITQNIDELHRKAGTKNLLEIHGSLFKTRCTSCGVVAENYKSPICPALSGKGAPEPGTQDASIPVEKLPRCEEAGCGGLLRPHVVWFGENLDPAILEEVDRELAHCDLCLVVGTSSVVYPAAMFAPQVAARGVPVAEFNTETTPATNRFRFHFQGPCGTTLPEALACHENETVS
The assay is described as follows: fluorescence-based sirtuin 5 assay (Reaction Biology) with substrate Ac-Lys-succ-AMC and NAD+. Particulars: recombinant sirtuin 5 aa 37-310, 50 µM Ac-Lys-succ-AMC, 10-dose 3-fold dilution, mean of three measurements; read-out: IC50 (hSirt5) [µM] ± SD. The assay is classed as biochemical. Here is the method: The synthesized cyclic boronate, cyanomethyl and formylmethyl derivatives of CG_209 and CG_220 were tested for their inhibitory effects against sirtuin 5 using a fluorescence-based assay utilizing a 7-amino-4-methyl coumarin-based succinylated lysine as its substrate. The IC50 values of these compounds were calculated as a mean of three measurements (Table 2). […] Significant loss in the potency of the boronates 51–54 could be observed compared to their lead structures CG_209 and CG_220.
The inhibitory activities of the synthesized target compounds were determined by Reaction Biology Corporation (Malvern, PA, USA) using a fluorescence-based assay. The sirtuin 5 enzyme utilized in this assay was produced in-house by Reaction Biology. The enzyme construct (accession number: NM_012241) comprised amino acids 37–310 (C-terminal region), carried an N-terminal His-tag and was expressed in Escherichia coli. The recombinant protein was purified to >95% purity, as confirmed by SDS-PAGE, and supplied in a solution containing 50 mM Tris-HCl (pH 8.0), 137 mM NaCl, 2.7 mM KCl, 1 mM MgCl2, 1 mg/mL BSA, and 1% DMSO with a protein concentration of 19 nM. Test compounds were prepared at a concentration of 10 mM in DMSO and incubated with 5 µL sirtuin 5 in the assay buffer per well at 30 °C for 10 min in a concentration range between 5 nM and 0.1 mM. 5 µL assay buffer without sirtuin 5 were used for control wells. The deacylation reaction was initiated by the addition of 5 µL substrate mixture comprising 50 µM fluorogenic substrate Ac-Lys-succ-AMC and the co-factor NAD^+. After a 2 h incubation at 30 °C, the reaction was terminated by adding 10 µL protease-based developer with 4 mM nicotinamide, which cleaves 7-amino-4-methylcoumarin to yield a fluorescent signal. Fluorescence was measured after an additional 1 h incubation at 30 °C, with excitation/emission wavelengths of 360/460 nm with EnVision® Plate Reader (Revvity, Waltham, MA, USA). To standardize results, a no-inhibitor control representing 100% enzyme activity was included in all assays. IC50 values for sirtuin 5 inhibition were determined in triplicate using a 10-dose, 3-fold serial dilution series. For each replicate, individual IC50 values were calculated by fitting sigmoidal dose–response curves using Prism 8.0.2 software (GraphPad Software, Boston, MA, USA). The final IC50 values are reported as the mean ± standard deviation of the triplicate measurements.

Assay [2] relates to sirtuin 5. Particulars: cited from earlier work.
[3] abbreviates: Figure 1, read-out: IC50 (published sirtuin 5 inhibitor).
The mark [4] stands for this setting: published values of the lead structures, read-out: IC50 (published values of lead structures).
The mark [5] stands for this setting: Figure 1, high-throughput screening hits, read-out: IC50 (published sirtuin 5 inhibitor).

`O=CCC(CC(=O)O)NC(=O)c1ccc(-c2cn(-c3ccc(O)c(C(=O)O)c3)nn2)cc1` (stereo not drawn) [Compound 64, 5-(4-(4-((1-Carboxy-4-oxobutan-2-yl)carbamoyl)phenyl)-1H-1,2,3-triazol-1-yl)-2-hydroxybenzoic acid]: the IC50 in assay [1] came out at 60 ± 15 µM. The same measure, in the same setting: then `CC1(C)OC(=O)c2cc(-c3cc(-c4ccc(C5=N[C@@H](CC(=O)O)CB(O)O5)cc4)on3)ccc2O1` [Compound 51, (R)-2-(6-(4-(3-(2,2-Dimethyl-4-oxo-4H-benzo[d][1,3]dioxin-6-yl)isoxazol-5-yl)phenyl)-2-hydroxy-3,4-dihydro-2H-1,5,2-oxazaborinin-4-yl)acetic acid], with 203 ± 50 µM; and `CC1(C)OC(=O)c2cc(-n3cc(-c4ccc(C5=N[C@@H](CC(=O)O)CB(O)O5)cc4)nn3)ccc2O1` [Compound 53, (R)-2-(6-(4-(1-(2,2-Dimethyl-4-oxo-4H-benzo[d][1,3]dioxin-6-yl)-1H-1,2,3-triazol-4-yl)phenyl)-2-hydroxy-3,4-dihydro-2H-1,5,2-oxazaborinin-4-yl)acetic acid], with 137 ± 63 µM. `N#CC[C@@H](CC(=O)O)NC(=O)c1ccc(-c2cc(-c3ccc(O)c(C(=O)O)c3)no2)cc1` [Compound 48, (S)-5-(5-(4-((1-Carboxy-3-cyanopropan-2-yl)carbamoyl)phenyl)isoxazol-3-yl)-2-hydroxybenzoic acid]: the IC50 in assay [1] was found to be 65 ± 15 µM. Same read-out and setting: then `O=CCC(CC(=O)O)NC(=O)c1ccc(-c2cc(-c3ccc(O)c(C(=O)O)c3)no2)cc1` (stereo not drawn) [Compound 61, 5-(5-(4-((1-Carboxy-4-oxobutan-2-yl)carbamoyl)phenyl)isoxazol-3-yl)-2-hydroxybenzoic acid], with 82 ± 3 µM. Regarding `O=c1[nH]c(=S)[nH]c(-c2ccccc2)c1Cc1c(O)ccc2ccccc12` [Cambinol, cambinol], in assay [2] (setting [3]), the IC50 was 43 µM. Consider `N#CC[C@@H](CC(=O)O)NC(=O)c1ccc(-c2cn(-c3ccc(O)c(C(=O)O)c3)nn2)cc1` [Compound 50, (S)-5-(4-(4-((1-Carboxy-3-cyanopropan-2-yl)carbamoyl)phenyl)-1H-1,2,3-triazol-1-yl)-2-hydroxybenzoic acid], for which the IC50 in assay [1] was 27 ± 9 µM.

In the case of `C=CCN1C(=O)/C(=C\c2ccc(-c3cccc(Cl)c3Cl)o2)C(=O)NC1=S` [Maurer compound 2], in assay [2] (setting [3]), the IC50 was 2.3 µM. In the case of `O=C1Nc2ccc(I)cc2/C1=C/c1cc(Br)c(O)c(Br)c1` [GW5074], in assay [2] (setting [3]), the IC50 was 20 µM. Turning to `N#C/C(=C\c1ccc(-c2ccc(C(=O)O)cc2)o1)C(=O)Nc1ccc(C#N)c(F)c1` [Liu compound 37], the half-inhibitory concentration (IC50) in assay [2] (setting [3]) is 5.6 µM. For `O=C(O)CCNC(=O)c1ccc(-c2cc(-c3ccc(O)c(C(=O)O)c3)no2)cc1` [CG_209], the IC50 in assay [2] (setting [4]) is 12 µM; in assay [1], 11 ± 1 µM.

Turning to `C=C1c2cccc(O)c2C(=O)C2=C(O)[C@]3(O)C(=O)C(C(N)=O)=C(O)[C@@H](N(C)C)[C@@H]3[C@@H](O)[C@H]12` [Methacycline, methacycline], in assay [2] (setting [5]), the IC50 is 3.6 µM. `O=C(O)CCNC(=O)c1ccc(-c2cn(-c3ccc(O)c(C(=O)O)c3)nn2)cc1` [CG_220]: the IC50 in assay [2] (setting [4]) is 7 µM and 7.4 µM; in assay [1], 9 ± 2 µM.

Regarding `O=C1c2c(O)cccc2Cc2cccc(O)c21` [Anthralin, anthralin], in assay [2] (setting [5]), the IC50 is 0.1 µM. Consider `O=C(O)CCNC(=O)c1ccc(/N=N/c2ccc(O)c(C(=O)O)c2)cc1` [Balsalazide, balsalazide], for which the IC50 in assay [2] (setting [5]) was 3.9 µM. Take `N#CC[C@H](CC(=O)O)NC(=O)c1ccc(-c2cn(-c3ccc(O)c(C(=O)O)c3)nn2)cc1` [Compound 49, (R)-5-(4-(4-((1-Carboxy-3-cyanopropan-2-yl)carbamoyl)phenyl)-1H-1,2,3-triazol-1-yl)-2-hydroxybenzoic acid]: the IC50 in assay [1] turned out to be 35 ± 6 µM.

For `N#CC[C@H](CC(=O)O)NC(=O)c1ccc(-c2cc(-c3ccc(O)c(C(=O)O)c3)no2)cc1` [Compound 47, (R)-5-(5-(4-((1-Carboxy-3-cyanopropan-2-yl)carbamoyl)phenyl)isoxazol-3-yl)-2-hydroxybenzoic acid], in assay [1], the IC50 turned out to be 97 ± 22 µM.

Turning to `CC1(C)OC(=O)c2cc(-n3cc(-c4ccc(C5=N[C@H](CC(=O)O)CB(O)O5)cc4)nn3)ccc2O1` [Compound 54, (S)-2-(6-(4-(1-(2,2-Dimethyl-4-oxo-4H-benzo[d][1,3]dioxin-6-yl)-1H-1,2,3-triazol-4-yl)phenyl)-2-hydroxy-3,4-dihydro-2H-1,5,2-oxazaborinin-4-yl)acetic acid], the 50% inhibitory concentration (IC50) in assay [1] is 61 ± 9 µM. Same read-out and setting: then `CC1(C)OC(=O)c2cc(-c3cc(-c4ccc(C5=N[C@H](CC(=O)O)CB(O)O5)cc4)on3)ccc2O1` [Compound 52, (S)-2-(6-(4-(3-(2,2-Dimethyl-4-oxo-4H-benzo[d][1,3]dioxin-6-yl)isoxazol-5-yl)phenyl)-2-hydroxy-3,4-dihydro-2H-1,5,2-oxazaborinin-4-yl)acetic acid], with 139 ± 18 µM.
